In patent US20200376291A1, “PHOTOBIOMODULATION THERAPY TO DELAY DYSTROPHY PROGRESSION” (Multi Radiance Medical, priority 2017, published 2020):

Legend:
Format in all cases: in vivo
dystrophin = experiment: Dystrophin in tibialis anterior muscle of mdx mice by immunohistochemistry; conditions: treated for 14 weeks from 6 weeks of age, prednisone 1.5 mg/kg per day, ibuprofen 25 mg/kg per day, PBMT 3 times a week, FIG. 18
Procedure: Mice were randomly divided into 7 different experimental groups: Wild Type (WT), Placebo-control (mdx mice), Prednisone (mdx mice), NSAID (mdx mice), […], and PBMT+NSAID (mdx mice). Prednisone (glucocorticoid) treatment was administered to animals daily with a dose of 1.5 mg/kg per day; NSAID treatment with ibuprofen was also administered to animals daily with a dose of 25 mg/kg per day. PBMT was performed employing a cluster probe (Multi Radiance Medical, Solon, Ohio) with 9 diodes (1 super-pulsed laser diode (905 nm), four LED diodes (875 nm), and 4 LED diodes (650 nm). PBMT was applied 3 times a week with direct contact to the animal's skin on hindlimb at a single point (tibialis anterior muscle—bilaterally). For combined treatments, each modality was applied as described previously. All treatments were performed during 14 weeks and started with animals at 6 weeks of age. The analysis consisted of muscle morphology, dystrophin through itntnunohistochetnistry and functional performance.

mdx mice [1] = experiment: Functional performance assessment in mdx mice; conditions: treated for 14 weeks from 6 weeks of age, FIG. 19
Procedure: The PBMT was analyzed using a functional performance evaluation protocol. The functional performance evaluation protocol included the animal climbing stairs with the following dimensions (1×0.09 m, distance between the steps of 0.5 cm and)80° using the animal's body weight (the protocol began with the animal's familiarization, in two sessions with a 24-h interval between the sessions). The aim of the sessions was to teach the mouse to move up the steps and consisted of three repetitions to the top, with a 60 s interval to rest. If necessary, a clamp stimulus for the animal to start moving was applied. After this familiarization, the assessments were performed before the treatments begin and 24-h after the last treatment, in order to evaluate how many times each mouse was able to climb up the stairs until the animal came to fatigue. Fatigue was identified when the animal could no longer perform the activity.
(§1) Mice were randomly divided into 7 different experimental groups: Wild Type (WT), Placebo-control (mdx mice), Prednisone (mdx mice), NSAID (mdx mice), […], and PBMT+NSAID (mdx mice). Prednisone (glucocorticoid) treatment was administered to animals daily with a dose of 1.5 mg/kg per day; NSAID treatment with ibuprofen was also administered to animals daily with a dose of 25 mg/kg per day. […]

mdx mice [2] = experiment: Skeletal muscle tissue morphology (histological sections, HE) in mdx mice; conditions: treated for 14 weeks from 6 weeks of age, tibialis anterior muscle, FIGS. 13-17
Procedure: The tibialis anterior muscles of the animal's hind paw were collected and stored in 10% buffered formalin for histological processing; then, hematoxylin and eosin staining was performed in a routine method. Slides were photographed, and the morphology of the skeletal striated muscle fibers was analyzed (Eclipse E-200; Nikon, Tokyo, Japan). Images of all groups were obtained using the 400x magnification. The images were presented with a similar photographic pattern.
as §1

| Structure (SMILES) | dystrophin compared to the placebo-control group (dystrophin) | muscular function compared to the placebo-control group (mdx mice [1]) | morphological aspects of skeletal muscle (mdx mice [2]) |
| --- | --- | --- | --- |
| CC(C)Cc1ccc(C(C)C(=O)O)cc1 (stereo not shown) [NSAID, ibuprofen] | no significant increase in dystrophin | – | – |
| C[C@]12C=CC(=O)C=C1CC[C@@H]1[C@@H]2C(=O)C[C@@]2(C)[C@H]1CC[C@]2(O)C(=O)CO [Prednisone] | increased dystrophin | improved muscular function | improvement in the morphological aspects of skeletal muscle |
